In US20080200376A1, “Compositions and Methods For the Treatment Of Obesity and Sexual Dysfunction” (priority 2004, published 2008):

Legend:
ferrets = assay: MC4R associated emesis in ferrets, Compound A and Compound B (Table 1); assay type: in vivo, ferret; details: Compound B 10 mg/kg PO; for % Emesis: ferrets; for # of Ferrets: ferrets with emesis/dosed
Method: (§1) Food intake (FI) was monitored at 1, 2, 4, and 24, hours after dosing. Body weight (BWT) was measured at the time of dosing and at 24 hours. Any incidence of emesis or abnormal behavior by subjects was recorded. Two studies were combined to generate the data.

[1] = Food intake in ad lib fed ferrets, Compound A and Compound B (FIG. 1); assay type: in vivo, ferret; details: oral, Compound B 10 mg/kg, Compound A 60 mg/kg or the combination, 1, 2, 4 and 24 hours after dosing
Method: FIG. 1. […] All food intake data were analyzed by two-tailed T-TEST.
as §1

[2] = test system: foot tapping in gerbils induced by central injection of an NK-1 agonist; assay: Gerbil foot-tapping assay; assay type: in vivo; details: i.v.
Description: CNS-penetrant NK-1 receptor antagonists for use in the present invention can be identified by their ability to inhibit foot tapping in gerbils induced by anxiogenic agents (such as pentagastrin) or central infusion of NK-1 receptor agonists such as GR73632, or caused by aversive stimulation such as foot shock or single housing, based on the method of Rupniak & Williams, Eur. J. Pharmacol., 1994, 265, 179.
Male or female Mongolian gerbils (35-90 g) are anaesthetised by inhalation of an isoflurane/oxygen mixture to permit exposure of the jugular vein in order to permit administration of test compounds or vehicle in an injection volume of 5 ml/kg i.v. Alternatively, test compounds may be administered orally or by subcutaneous or intraperitoneal routes. A skin incision is then made in the midline of the scalp to expose the skull. […] The duration and/or intensity of hind foot tapping is then recorded continuously for approximately 5 minutes. Alternatively, the ability of test compounds to inhibit foot tapping evoked by aversive stimulation, such as foot shock or single housing, may be studied using a similar method of quantification.

[3] = test system: cisplatin-induced emesis in ferrets; assay: Ferret emesis assay; assay type: in vivo; details: p.o.
Method: Individually housed male ferrets (1.0-2.5 kg) are dosed orally by gavage with test compound. Ten minutes later they are fed with approximately 100 g of tinned cat food. At 60 minutes following oral dosing, cisplatin (10 mg/kg) is given i.v. via a jugular vein catheter inserted under a brief period of halothane anaesthesia. The catheter is then removed, the jugular vein ligated and the skin incision closed. The ferrets recover rapidly from the anaesthetic and are mobile within 10-20 minutes. The animals are observed continuously during recovery from the anaesthetic and for 4 hours following the cisplatin injection, after which time the animals are killed humanely. The numbers of retches and vomits occurring during the 4 hours after cisplatin administration are recorded by trained observers.

[4] = test system: distress vocalisations in guinea-pig pups; assay: Separation-induced vocalisation assay; assay type: in vivo; details: p.o.
Method: Male and female guinea-pigs pups are housed in family groups with their mothers and littermates throughout the study. Experiments are commenced […] when the pups are 2 weeks old. Before entering an experiment, the pups are screened to ensure that a vigorous vocalisation response is reproducibly elicited following maternal separation. The pups are placed individually in an observation cage (55 cm×39 cm×19 cm) in a room physically isolated from the home cage for 15 minutes and the duration of vocalisation during this baseline period is recorded. Only animals which vocalise for longer than 5 minutes are employed for drug challenge studies (approximately 50% of available pups may fail to reach this criterion). On test days each pup receives an oral dose or an s.c. or i.p. injection of test compound or vehicle and is then immediately returned to the home cage with its mother and siblings for 30 to 60 minutes (or for up to 4 hours following an oral dose, dependent upon the oral pharmacokinetics of the test compound) before social isolation for 15 minutes as described above. The duration of vocalisation on drug treatment days is expressed as a percentage of the pre-treatment baseline value for each animal. The same subjects are retested once weekly for up to 6 weeks. Between 6 and 8 animals receive each test compound at each dose tested.

Row | SMILES | % Emesis (ferrets; 1 hour) [%] | % Emesis (ferrets; 2 hours) [%] | % Emesis (ferrets; 4 hours) [%] | % Emesis (ferrets; Total) [%] | # of Ferrets (ferrets; 1 hour) | # of Ferrets (ferrets; 2 hours) | # of Ferrets (ferrets; 4 hours) | # of Ferrets (ferrets; Total) | Food intake [1] | gerbil foot-tapping (5 mins.) ID50 ([2]; 5 mins.) [mg/kg] | gerbil foot-tapping (24 hrs.) ID50 ([2]; 24 hrs.) [mg/kg] | ferret emesis ID90 [3] [mg/kg] | guinea-pig vocalisation (4 hr. pre-treatment) ID50 [4] [mg/kg]
1 | C[C@@H](O[C@H]1OCCN(Cc2nn[nH]c2CN(C)C)[C@H]1c1ccc(F)cc1)c1cc(C(F)(F)F)cc(C(F)(F)F)c1 [Compound B, 2-(R)-(1-(R)-(3,5-bis(trifluoromethyl)phenyl)ethoxy)-4-(5-(dimethylamino)methyl-1,2,3-triazol-4-yl)methyl-3-(S)-(4-fluorophenyl)morpholine] | 0 | 0 | 0 | 0 | 0/9 | 0/9 | 0/9 | 0/9 | significantly reduced in the NK1 dose group at 24 hours only | – | – | – | –
2 | C[C@@H](O[C@H]1OCCN(Cc2nc(=O)[nH][nH]2)[C@H]1c1ccc(F)cc1)c1cc(C(F)(F)F)cc(C(F)(F)F)c1 [2-(R)-(1-(R)-(3,5-bis(trifluoromethyl)phenyl)ethoxy)-3-(S)-(4-fluorophenyl)-4-(3-(5-oxo-1H,4H-1,2,4-triazolo)methyl)morpholine] | – | – | – | – | – | – | – | – | – | 0.36 | 0.33 | < 3 | 0.73
